Data reported in US8557818B2, “Compounds useful as protein kinase inhibitors” (Vertex Phamaceuticals Incorporated, priority 2006, dated 2013).

Target: PLK1 (Homo sapiens, UniProt P53350)
Assay: PLK1 Inhibition Assay 1 (radioactive-phosphate incorporation assay)
Assay type: biochemical
Conditions: Ki(app), [γ-33P]ATP 350 μM, peptide 450 μM, 1 nM PLK1 for values of <1 nM
Procedure: Compounds of the present invention are evaluated as inhibitors of human PLK using the following assays.
Compounds were screened for their ability to inhibit PLK1 using a radioactive-phosphate incorporation assay. Assays were carried out in a mixture of 25 mM HEPES (pH 7.5), 10 mM MgCl2, 0.1% BSA, and 2 mM DTT. Final substrate concentrations were 150 μM (350 μM for determining values of <1 nM) [γ-33P]ATP (115 mCi 33P ATP/mmol ATP, Amersham Pharmacia Biotech/Sigma Chemicals) and 300 μM (450 μM for determining values of <1 nM) peptide (KKKISDELMDATFADQEAK)[SEQ ID:1]. Assays were carried out at 25° C. in the presence of 4 nM (1 nM for determining values of <1 nM) PLK1. An assay stock buffer solution was prepared containing all of the reagents listed above, with the exception of ATP and the test compound of interest. 30 μL of the stock solution was placed in a 96 well plate followed by addition of 2 μL of DMSO stock containing serial dilutions of the test compound (typically starting from a final concentration of 10 μM with 2-fold serial dilutions) in duplicate (final DMSO concentration 5%). The plate was pre-incubated for 10 minutes at 25° C. and the reaction initiated by addition of 8 μL [γ-33P]ATP (final concentration 150 μM (350 μM for determining values of <1 nM))).
The reaction was stopped after 90 minutes (240 minutes for determining values of <1 nM) by the addition of 100 μL 0.14M phosphoric acid. A multiscreen phosphocellulose filter 96-well plate (Millipore, Cat no. MAPHN0B50) was pretreated with 100 μL 0.2M phosphoric acid prior to the addition of 125 μL of the stopped assay mixture. The plate was washed with 4×200 μL 0.2M phosphoric acid. […]
After removing mean background values for all of the data points, Ki(app) data were calculated from non-linear regression analysis of the initial rate data using the Prism software package (GraphPad Prism version 3.0cx for Macintosh, GraphPad Software, San Diego Calif., USA).

Sequence of PLK1 (P53350 whole entry): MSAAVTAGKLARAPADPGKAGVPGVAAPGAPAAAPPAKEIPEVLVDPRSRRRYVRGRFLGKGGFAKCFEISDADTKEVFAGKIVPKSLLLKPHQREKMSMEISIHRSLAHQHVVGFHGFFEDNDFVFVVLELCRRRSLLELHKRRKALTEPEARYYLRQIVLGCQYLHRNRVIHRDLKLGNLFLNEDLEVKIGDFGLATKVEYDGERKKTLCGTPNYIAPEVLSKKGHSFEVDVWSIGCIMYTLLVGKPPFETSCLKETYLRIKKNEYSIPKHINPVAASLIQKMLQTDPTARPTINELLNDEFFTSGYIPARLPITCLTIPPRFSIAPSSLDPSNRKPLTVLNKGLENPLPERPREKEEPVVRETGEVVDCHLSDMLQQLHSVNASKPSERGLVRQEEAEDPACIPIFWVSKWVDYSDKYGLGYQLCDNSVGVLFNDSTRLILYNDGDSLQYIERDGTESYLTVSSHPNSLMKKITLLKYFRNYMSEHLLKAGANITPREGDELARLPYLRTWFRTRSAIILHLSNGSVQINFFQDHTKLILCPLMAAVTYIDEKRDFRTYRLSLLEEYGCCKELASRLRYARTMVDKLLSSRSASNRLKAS

Compound	Ki [nM]
CC[C@@H]1c2c(C(=O)O)ncn2-c2cnc(Nc3ccc(C(=O)NC)cc3OC)nc2N1C1CCCC1 [Compound I-2, (R)-3-(4-(methylcarbamoyl)-2-methoxyphenylamino)-5-cyclopentyl-6-ethyl-5,6-dihydroimidazo[1,5-f]pteridine-7-carboxylic acid]	< 1
CC[C@@H]1c2cncn2-c2cnc(Nc3ccc(C(=O)NC)cc3OC)nc2N1C1CCCC1 [Compound I-4, (R)-4-(5-cyclopentyl-6-ethyl-5,6-dihydroimidazo[1,5-f]pteridin-3-ylamino)-3-methoxy-N-methylbenzamide]	< 1
CC[C@@H]1c2cncn2-c2cnc(Nc3ccc(C(=O)NC4CC4)cc3OC)nc2N1C1CCCC1 [Compound I-6, (R)-4-(5-cyclopentyl-6-ethyl-5,6-dihydroimidazo[1,5-f]pteridin-3-ylamino)-N-cyclopropyl-3-methoxybenzamide]	< 1
